Key:
[1] = biological target: DPP4 (Dipeptidyl-peptidase 4) (Homo sapiens, UniProt P27487); assay: Inhibition of DPP4 enzyme; type: biochemical; set-up: Anti-DPP4 activity: unit of the concentration uncertain
[2] = test system: glycation; assay: Anti-glycation activity of curcuminoids at 24 and 72 hrs (320/405); type: biochemical
[3] = test system: IL-1β; assay: IL-1β expression in pancreas of HFFD diabetic rats (qRT-PCR); type: in vivo, Wistar Rats; conditions: Diabetic 1.66 ± 0.04
From the text: (§1) Wistar Rats (150 g) were given High fat and fructose diet (HFFD) to induced type 2 diabetes (T2D). HFFD induces the development of diabetes associated with long term metabolic disorders including Fasting hyperglycemia, pre- and post-prandial hyperinsulinemia, Insulin resistance, Glucose intolerance and Dyslipidemia. Animals in HFFD show complications associated with T2D such as hepatic steatosis complicated by fibrosis, inflammation, hyperleptinemia and endothelial dysfunction. Rats were co administered with AC3 (100 mg/kg), BAP (200 μg/kg) BAP+AC3 (200 μg+100 mg/kg) BAP+AC3 (50 μg+100 mg/kg) and Metformin as positive control at 100 mg/kg along with HFFD for 90 days (Table 4). The organs were collected at the end of the experiment to evaluate the effect of the supplements on RAGE expression, oxidative stress and inflammation. […] from pancreas sample using the trizol method. […] First-strand cDNA was prepared from RNA samples using oligo dT primers and Superscript III reverse transcriptase (cDNA synthesis kit, Invitrogen™) Quantitative real-time PCR (qRT-PCR) was performed with SYBR Green I fluorescent dye using Light cycler 96 according to the manufacturer's instructions (Light Cycler® FastStart DNA Master SYBR Green I, Roche). […] The gene expression of the target gene in each test sample was determined by relative quantification using the comparative Ct (ΔΔCt) method.

[4] = test system: TNF-α; assay: TNF-α expression in pancreas of HFFD diabetic rats (qRT-PCR); type: in vivo, Wistar Rats; conditions: Diabetic 1.73 ± 0.34
From the text: as §1

[5] = test system: inflammatory marker (TNF-α, IL6, IL-1β); assay: Inflammatory cytokine expression in pancreas of HFFD diabetic rats, overall statements; type: in vivo, Wistar Rats; conditions: BAP 200 ug/kg; AC3 100 mg/kg; combinations; p<0.05
From the text: as §1

[6] = test system: IL-6; assay: IL-6 expression in pancreas of HFFD diabetic rats (qRT-PCR); type: in vivo, Wistar Rats; conditions: Diabetic 1.60 ± 0.09
From the text: as §1

[7] = test system: formation of AGE (bovine serum albumin + D-Ribose); assay: In vitro anti-glycation assay (BSA + D-Ribose, fluorescence Ex/Em 390/460 nm, 24 h); type: biochemical
From the text: Glycation is the non-enzymatic glycosylation reaction involving amino groups of proteins, lipids, or nucleic acids with sugar aldehyde or keto groups resulting in the formation of advanced glycosylation end-products (AGE) (Yamagishi et al. Pathologic role of dietary advanced glycation end products in cardiometabolic disorders, and therapeutic intervention, Nutrition, 32(2), 157-65 (2016)). The reactive carbonyls of sugars combine with amino groups of a protein, lipid or nucleic acid generating Schiff bases, which rearrange to Amadori products. In a series of slow reactions, the Amadori reactions, Schiff base and Maillard reactions, ultimately form AGE. Although glycation is slow in vivo, the glycation products have long-lasting effects. The effect of test substances on preventing the formation of AGE was evaluated in vitro
Anti-glycation activity was evaluated as described earlier (Sero et al. Tuning a 96-Well Microtiter Plate Fluorescence-Based Assay to Identify AGE Inhibitors in Crude Plant Extracts) Briefly, 10 μl of various sample concentrations were added to 40 μl of 25 mg/ml bovine serum albumin and 50 μl of 150 mg/ml D-Ribose in a 96 well black microplate. D-Ribose with buffer served as control. The plate containing the mixture was incubated for 24 h at 37° C. The advanced glycation product was detected by measuring the fluorescence intensity at Ex/Em of 390/460 nm by using BMG FLUOstar Optima Microplate reader.

[8] = test system: reactive oxygen species (ROS); assay: Oxidative stress in tissue homogenates (DCFDA fluorescence) of HFFD diabetic rats; type: in vivo, Wistar Rats; conditions: for Relative Fluorescence Intensity, Average: Normal 6.5, Diabetic 23.8
From the text: Wistar Rats (150 g) were given High fat and fructose diet (HFFD) to induced type 2 diabetes (T2D). HFFD induces the development of diabetes associated with long term metabolic disorders including Fasting hyperglycemia, pre- and post-prandial hyperinsulinemia, Insulin resistance, Glucose intolerance and Dyslipidemia. Animals in HFFD show complications associated with T2D such as hepatic steatosis complicated by fibrosis, inflammation, hyperleptinemia and endothelial dysfunction.
Rats were co administered with AC3 (100 mg/kg), BAP (200 μg/kg) BAP+AC3 (200 μg+100 mg/kg) BAP+AC3 (50 μg+100 mg/kg) and Metformin as positive control at 100 mg/kg along with HFFD for 90 days (Table 4). The organs were collected at the end of the experiment to evaluate the effect of the supplements on RAGE expression, oxidative stress and inflammation.
The level of oxidative stress in tissue was estimated by using 20,70-dichlorofluorescin diacetate (DCFDA), a fluorogenic dye that measures hydroxyl, peroxyl, and other reactive oxygen species (ROS) activity. Briefly, an aliquot of the tissue homogenates (10 μL) were mixed with 150 μL ethanol solution of DCFDA to the final concentration of 10 mM. After incubation for 30 min at room temperature in dark, the fluorescence was measured with the excitation and emission wavelengths of 488 and 520 nm. Higher the fluorescence, higher is the oxidative stress. oxidative stress is decreased in the subject, and brought about by curcuminoids. BAP, or their combination.

[9] = test system: RAGE; assay: RAGE expression in pancreas of HFFD-induced diabetic rats (qRT-PCR); type: in vivo, Wistar Rats
From the text: as §1

Sequence of DPP4 (Dipeptidyl-peptidase 4) (P27487 whole entry, species assumed): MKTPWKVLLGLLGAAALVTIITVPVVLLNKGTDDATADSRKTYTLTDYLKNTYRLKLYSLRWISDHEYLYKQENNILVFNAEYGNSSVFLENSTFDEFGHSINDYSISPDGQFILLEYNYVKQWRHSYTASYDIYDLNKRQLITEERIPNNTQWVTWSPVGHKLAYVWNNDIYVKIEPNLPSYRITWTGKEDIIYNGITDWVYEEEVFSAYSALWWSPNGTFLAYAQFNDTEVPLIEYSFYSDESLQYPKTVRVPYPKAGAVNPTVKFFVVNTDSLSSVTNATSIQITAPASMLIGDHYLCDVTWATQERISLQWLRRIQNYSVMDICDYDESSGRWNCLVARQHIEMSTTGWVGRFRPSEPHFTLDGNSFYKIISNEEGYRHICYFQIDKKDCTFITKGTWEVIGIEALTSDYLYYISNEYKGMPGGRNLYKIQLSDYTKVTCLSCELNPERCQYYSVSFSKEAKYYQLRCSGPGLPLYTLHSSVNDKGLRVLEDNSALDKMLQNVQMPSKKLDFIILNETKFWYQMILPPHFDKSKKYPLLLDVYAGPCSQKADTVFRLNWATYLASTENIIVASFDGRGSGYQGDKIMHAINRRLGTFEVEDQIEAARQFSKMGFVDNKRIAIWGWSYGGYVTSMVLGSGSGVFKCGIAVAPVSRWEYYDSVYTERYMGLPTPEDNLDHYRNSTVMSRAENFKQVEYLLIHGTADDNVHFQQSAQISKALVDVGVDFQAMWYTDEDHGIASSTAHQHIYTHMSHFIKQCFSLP

## COc1cc(/C=C/C(O)=C/C(=O)/C=C/c2ccc(O)cc2)ccc1O [DMC, demethoxycurcumin]
[1]; Conc 12.5 (unit uncertain)
  Anti-DPP4 activity: 23.56
[1]; Conc 25 (unit uncertain)
  Anti-DPP4 activity: 39.86
[1]; Conc 50 (unit uncertain)
  Anti-DPP4 activity: 62.60

## COc1cc(/C=C/C(=O)CC(=O)/C=C/c2ccc(O)c(OC)c2)ccc1O [Curcumin, curcumin]
[2]; 24 hrs (320/405), Conc 0.3125 mg/mL
  Anti-Glycation activity: 29.67
[2]; 24 hrs (320/405), Conc 0.625 mg/mL
  Anti-Glycation activity: 35.90
[2]; 72 hrs (320/405), Conc 0.625 mg/mL
  Anti-Glycation activity: 44.42
[1]; Conc 12.5 (unit uncertain)
  Anti-DPP4 activity: 14.11
[1]; Conc 25 (unit uncertain)
  Anti-DPP4 activity: 48.88
[1]; Conc 50 (unit uncertain)
  Anti-DPP4 activity: 70.29
[1]; Table 11
  Effectiveness against DPP4 (comparison in words): as effective as AC3

## CCCCCCCCCCCCCCCC(=O)O[C@H]1CC[C@]2(C)[C@H]3CC=C4[C@@H]5CC(C)(C)CC[C@]5(C)CC[C@@]4(C)[C@]3(C)CC[C@H]2C1(C)C [BAP, β-amyrin palmitate]
[3]; BAP 200 μg/kg
  Expression level of IL-1β (Normal = 1): 1.62 ± 0.11
[4]; BAP 200 μg/kg
  Expression level of TNF-α (Normal = 1): 2.01 ± 0.31
[5]
  Reduction of inflammatory cytokine expression in pancreas (in words): not effective
[6]; BAP 200 μg/kg
  Expression level of IL-6 (Normal = 1): 2.09 ± 0.08
[7]; BAP 1 μg/mL
  Percentage Inhibition: 0%
[7]; BAP 2 μg/mL
  Percentage Inhibition: 11.92%
[7]; BAP 4 μg/mL
  Percentage Inhibition: 9.67%
[7]; in vitro, BSA + ribose
  Inhibition of AGE formation (in words): poor inhibitor of AGE formation
[8]; BAP 200 μg/kg
  Relative Fluorescence Intensity, Average: 11.5
[8]; HFFD rats, 90 days
  Decrease of oxidative stress from the diabetic control: 2 fold
[9]; BAP 200 μg/kg, 90 days with HFFD, vs diabetic rats
  Effect on pancreatic RAGE expression: no effect

## CN(C)C(=N)N=C(N)N [Metformin]
[3]; Metformin 100 mg/kg
  Expression level of IL-1β (Normal = 1): 0.89 ± 0.05
[4]; Metformin 100 mg/kg
  Expression level of TNF-α (Normal = 1): 0.91 ± 0.22
[6]; Metformin 100 mg/kg
  Expression level of IL-6 (Normal = 1): 1.04 ± 0.12
[8]; Metformin 100 mg/kg
  Relative Fluorescence Intensity, Average: 28.94
[9]; metformin 100 mg/kg, pancreas
  Reduction of RAGE expression: 6.9%

## O=C(/C=C/c1ccc(O)cc1)CC(=O)/C=C/c1ccc(O)cc1 [BDMC, Bisdemethoxycurcumin]
[1]; Conc 12.5 (unit uncertain)
  Anti-DPP4 activity: 43.58
[1]; Conc 25 (unit uncertain)
  Anti-DPP4 activity: 56.07
[1]; Conc 50 (unit uncertain)
  Anti-DPP4 activity: 58.55
